Measured values from patent US10093621B2, “4-oxo-N-(4-hydroxyphenyl)retinamide derivatives as therapeutic agents for the treatment of cancer” (FONDAZIONE IRCCS ISTITUTO NAZIONALE DEI TUMORI, priority 2014, dated 2018).

How the values were obtained:
A2780 = experiment: Antiproliferative activity, sulphorhodamine B assay, 72 hours of treatment; assay type: cell-based; details: A2780 (ovary)
Protocol: (§1) The antiproliferative activity of the various compounds 1a-c (in both monotherapy and combined treatment) on the different tumour cell lines was evaluated by sulphorhodamine B assay after 72 hours of treatment, and the dose able to inhibit 50% of growth (IC50) was calculated for the monotherapy (the results are summarized in Table 1 and Table 3), while the Kern Index (KI) was determined as the synergism/antagonism […] index for the combined treatment (the results are depicted in FIG. 2).

[1] = test system: ovarian cancer cells (A2780); experiment: Cell cycle and apoptosis in ovarian cancer cells; assay type: cell-based
[2] = In vivo plasma levels by HPLC after i.p. administration; design: species or system nude mice; details: for Plasma level: 5 hours after last administration, 5% DMSO, H2O
Protocol: To evaluate the plasma levels of salt 1a, 4-oxo-4-HPR (120 mg/kg) and salt 1a (sodium 4-aminoxyacetate-4-HPR) (60 and 100 mg/kg) were administered i.p. to nude mice for 4 consecutive days (once a day), and the plasma levels were evaluated by HPLC 5 hours after the last administration (the results are summarized in Table 2).

T47-D = experiment: Antiproliferative activity, sulphorhodamine B assay, 72 hours of treatment; assay type: cell-based; details: T47-D (breast)
Protocol: as §1

IGROV-1 = experiment: as above; assay type: cell-based, human; details: IGROV-1 (ovary)
Protocol: as §1

MDA-MB-231 = experiment: as above; assay type: cell-based, human; details: MDA-MB-231 (breast)
Protocol: as §1

BT-474 = experiment: as above; assay type: cell-based; details: BT-474 (breast)
Protocol: as §1

JVM-2 = experiment: as above; assay type: cell-based; details: JVM-2 (lymphoma)
Protocol: as §1

MESO = experiment: as above; assay type: cell-based; details: MESO (mesothelioma)
Protocol: as §1

SK-N-BE = experiment: as above; assay type: cell-based; details: SK-N-BE (neuroblastoma)
Protocol: as §1

SK-N-SH = experiment: as above; assay type: cell-based; details: SK-N-SH (neuroblastoma)
Protocol: as §1

SKOV-3 = experiment: as above; assay type: cell-based; details: SKOV-3 (ovary)
Protocol: as §1

Sk-N-5Y = experiment: as above; assay type: cell-based; details: Sk-N-5Y (neuroblastoma)
Protocol: as §1

STO = experiment: as above; assay type: cell-based, human; details: STO (mesothelioma)
Protocol: as §1

[3] = test system: human mesothelioma (STO) cells; experiment: In vivo antitumor activity, mesothelioma xenograft (s.c.); design: species or system mice; details: 30 and 60 mg/kg i.p., 5 days/week for 4 weeks
Protocol: As regards to mesothelioma, the mice were inoculated s.c. with STO cells, and treatment with the salt 1a began one day after tumor cell inoculation (doses: 30 and 60 mg/kg i.p.; 5 days/week for 4 weeks). The control mice were treated with the same solvent as used to dissolve the salt. The animals were examined twice a week to check their weight and any signs of toxicity. Tumour growth in the various groups (control and treated) was evaluated, and the differences were statistically analysed (the results are shown in FIG. 3a).

[4] = test system: ovarian cancer (IGROV-1) cells; assay type: in vivo
Protocol: For the ovarian model, nude mice were inoculated i.p. with IGROV-1 cells, and treatment with the salt 1a began one day after tumor cell inoculation (doses: 30, 60 and 90 mg/kg i.p.; 5 days/week for 4 weeks). The control mice were treated with the same solvent as used to dissolve the salt. The animals were examined twice a week to check their weight and any signs of toxicity. The survival time of the various groups (control and treated) was evaluated, and the differences were statistically analysed.

[5] = test system: human breast cancer cells (MDA-MB-231); experiment: In vivo antitumor activity, breast cancer model (mammary fat pad); details: 90 mg/kg
Protocol: As regards the breast cancer model, human breast cancer cells (MDA-MB-231) were inoculated into the mammary fat pad of NOD/SCID-gamma mice, and treatment with the salt 1a began one week after tumor cell inoculation (dose: 90 mg/kg; 4 days/week for 5 weeks). The animals were examined twice a week to check their weight and any signs of toxicity. Tumour growth in the various groups (control and treated) was evaluated, and the differences were statistically analysed.

ROS = ROS generation, CM-H2DCFDA probe, FACS; assay type: cell-based; details: 5 hours of treatment
Protocol: (§2) As regards to the evaluation of the mechanism of action, ROS generation was determined after 5 hours of treatment with the use of the 5-(and -6)-chloromethyl-2′, 7′-dichlorodihydrofluorescein diacetate (CM-H2DCFDA) probe, while the cell cycle was evaluated by staining with propidium iodide. Cytofluorimetric analysis (FACS) was conducted in both cases.

cell cycle = experiment: Cell cycle, propidium iodide staining, FACS; assay type: cell-based
Protocol: as §2

[6] = test system: tumour cell lines of different histotypes; experiment: Antiproliferative activity of combined treatment, sulphorhodamine B assay, Kern Index; assay type: cell-based; details: 72 hours, preliminary
Protocol: as §1

CC(C=CC1=C(C)C(=NOCCN)CCC1(C)C)=CC=CC(C)=CC(=O)Nc1ccc(O)cc1 [Compound 1d, 9-[3-(2-Amino-ethoxyimino)-2,6,6-trimethyl-cyclohex-1-enyl]-3,7-dimethylnona-2,4,6,8-tetraenoic acid (4-hydroxy-phenyl)amide]
IC50 (A2780; Homo sapiens): 955 nM
Apoptotic activity (sub-G1 peak) [1]: apoptotic (sub-G1 peak)
Cell cycle arrest [1]: induced a cycle arrest in G2-M
melting point: 134 °C

CC1=C(/C=C/C(C)=C/C=C/C(C)=C/C(=O)Nc2ccc(O)cc2)C(C)(C)CCC1=O [Compound 4-oxo-4-HPR, 4-oxo-N-(4-hydroxyphenyl)retinamide]
Plasma level ([2]; i.p. once a day for 4 days, 5% cremophor): 0.8 μM ± 0.4
Accumulation of the compound in proximity to the inoculation site ([2]; treated mice, i.p.): observed

CC1=C(/C=C/C(C)=C/C=C/C(C)=C/C(=O)Nc2ccc(O)cc2)C(C)(C)CCC1=NOCCCC(=O)O [LOM1098]
IC50 (A2780): 3590 nM
IC50 (T47-D): 4200 nM
IC50 (IGROV-1): 3540 nM
IC50 (MDA-MB-231): 4260 nM

CCCCC(ON=C1CCC(C)(C)C(/C=C/C(C)=C/C=C/C(C)=C/C(=O)Nc2ccc(O)cc2)=C1C)C(=O)O (centres unmarked) [LOM1133]
IC50 (A2780): 2370 nM
IC50 (T47-D): 3000 nM
IC50 (IGROV-1): 2190 nM
IC50 (MDA-MB-231): 2950 nM

CC1=C(/C=C/C(C)=C/C=C/C(C)=C/C(=O)Nc2ccc(O)cc2)C(C)(C)CCC1=NOCC(=O)[O-].[Na+] [Salt 1a]
IC50 (A2780): 2780 nM
IC50 (BT-474): 3690 nM
IC50 (JVM-2): 1110 nM
IC50 (MESO): 1280 nM
IC50 (SK-N-BE): 1550 nM
IC50 (SK-N-SH): 1900 nM
IC50 (SKOV-3): 5960 nM
IC50 (Sk-N-5Y): 1300 nM
IC50 (T47-D): 3950 nM
IC50 (IGROV-1): 3820 nM
IC50 (MDA-MB-231): 3970 nM
IC50 (STO): 1480 nM
Plasma level ([2]; 60 mg/Kg i.p. once a day for 4 days): 60.3 μM ± 2.52
Plasma level ([2]; 100 mg/Kg i.p. once a day for 4 days): 63.7 μM ± 2.08
Toxicity for the animals ([2]; daily doses of 60 and 100 mg/kg): does not possess high toxicity
Solubility compared with the parent compound ([2]; from in vivo experiments in murine models): far more soluble than the parent compound
Plasma levels, times higher than 4-oxo-4-HPR ([2]; murine models, versus 4-oxo-4-HPR): up to 60 times
Tumour growth [3]: activity trend of the compound, although it did not reach statistical significance
Survival of the mice ([4]; IGROV-1 i.p., doses of 60 and 90 mg/kg i.p., 5 days/week for 4 weeks, p<0.01): significantly increased the survival
Signs of toxicity ([4]; IGROV-1 model, 60 and 90 mg/kg): without any evident signs of severe toxicity
Tumour growth ([5]; MDA-MB-231, 4 days/week for 5 weeks, p=0.01): reduced tumour growth
Signs of toxicity ([5]; MDA-MB-231 model): without evident signs of severe toxicity
ROS generation (pro-apoptotic activity) (ROS): the generation of ROS
Cell cycle arrest during the mitotic phase (antitubulin activity) (cell cycle): the cell cycle arrest during the mitotic phase
Activity of combined treatment (Kern Index) ([6]; combined with 4-HPR): synergic activity
Activity of combined treatment (Kern Index) ([6]; combined with cisplatin): synergic activity
Activity of combined treatment (Kern Index) ([6]; combined with paclitaxel): synergic activity
